From patent US11279701B2, “Immunomodulators and immunomodulator conjugates” (REGENTS OF THE UNIVERSITY OF MINNESOTA, priority 2016, dated 2022)

Key:
[1] = target: T1, human TLR-8 (Homo sapiens, UniProt Q9NR97); assay: TLR7/8-NF-κB Reporter Assay (HEK SEAP Reporter Assay), HEK-TLR-8 cells; type: cell-based; details: HEK cells stably transfected with human TLR-8 and NF-κB-responsive SEAP gene, 24 h
T1 construct: host or cells: HEK cells stably transfected with human TLR-8 and an NF-κB-responsive SEAP reporter (HEK-TLR-8)
T1 sequence (Q9NR97 27-1041): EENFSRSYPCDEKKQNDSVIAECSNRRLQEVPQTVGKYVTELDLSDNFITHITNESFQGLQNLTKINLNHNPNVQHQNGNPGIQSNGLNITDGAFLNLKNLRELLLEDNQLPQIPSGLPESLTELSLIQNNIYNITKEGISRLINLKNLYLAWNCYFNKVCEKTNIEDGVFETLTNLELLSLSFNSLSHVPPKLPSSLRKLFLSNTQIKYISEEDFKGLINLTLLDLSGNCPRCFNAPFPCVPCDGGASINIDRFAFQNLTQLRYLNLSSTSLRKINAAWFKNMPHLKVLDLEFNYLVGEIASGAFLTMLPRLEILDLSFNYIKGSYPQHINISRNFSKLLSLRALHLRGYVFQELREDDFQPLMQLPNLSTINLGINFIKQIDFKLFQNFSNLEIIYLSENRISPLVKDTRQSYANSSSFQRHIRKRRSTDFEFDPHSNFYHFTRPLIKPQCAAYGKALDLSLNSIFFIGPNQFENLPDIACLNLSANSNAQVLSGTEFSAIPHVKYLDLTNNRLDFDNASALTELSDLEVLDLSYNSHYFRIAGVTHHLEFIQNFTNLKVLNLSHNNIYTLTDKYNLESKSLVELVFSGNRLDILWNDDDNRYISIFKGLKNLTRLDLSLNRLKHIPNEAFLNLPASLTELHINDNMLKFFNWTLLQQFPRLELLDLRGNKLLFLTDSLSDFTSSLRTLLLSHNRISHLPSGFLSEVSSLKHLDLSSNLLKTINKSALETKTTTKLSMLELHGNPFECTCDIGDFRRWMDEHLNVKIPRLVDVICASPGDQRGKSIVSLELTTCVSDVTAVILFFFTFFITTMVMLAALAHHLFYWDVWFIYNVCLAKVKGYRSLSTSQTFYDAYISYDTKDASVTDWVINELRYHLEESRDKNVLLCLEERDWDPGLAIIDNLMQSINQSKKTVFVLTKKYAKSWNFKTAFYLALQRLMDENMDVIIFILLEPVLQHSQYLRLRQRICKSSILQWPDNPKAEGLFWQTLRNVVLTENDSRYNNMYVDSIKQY

[2] = target: T2, human TLR-7 (Homo sapiens, UniProt Q9NYK1); assay: TLR7/8-NF-κB Reporter Assay (HEK SEAP Reporter Assay), HEK-TLR-7 cells; type: cell-based; details: HEK cells stably transfected with human TLR-7 and NF-κB-responsive SEAP gene, 24 h
T2 construct: host or cells: HEK cells stably transfected with human TLR-7 and an NF-κB-responsive SEAP reporter (HEK-TLR-7)
T2 sequence (Q9NYK1 27-1049): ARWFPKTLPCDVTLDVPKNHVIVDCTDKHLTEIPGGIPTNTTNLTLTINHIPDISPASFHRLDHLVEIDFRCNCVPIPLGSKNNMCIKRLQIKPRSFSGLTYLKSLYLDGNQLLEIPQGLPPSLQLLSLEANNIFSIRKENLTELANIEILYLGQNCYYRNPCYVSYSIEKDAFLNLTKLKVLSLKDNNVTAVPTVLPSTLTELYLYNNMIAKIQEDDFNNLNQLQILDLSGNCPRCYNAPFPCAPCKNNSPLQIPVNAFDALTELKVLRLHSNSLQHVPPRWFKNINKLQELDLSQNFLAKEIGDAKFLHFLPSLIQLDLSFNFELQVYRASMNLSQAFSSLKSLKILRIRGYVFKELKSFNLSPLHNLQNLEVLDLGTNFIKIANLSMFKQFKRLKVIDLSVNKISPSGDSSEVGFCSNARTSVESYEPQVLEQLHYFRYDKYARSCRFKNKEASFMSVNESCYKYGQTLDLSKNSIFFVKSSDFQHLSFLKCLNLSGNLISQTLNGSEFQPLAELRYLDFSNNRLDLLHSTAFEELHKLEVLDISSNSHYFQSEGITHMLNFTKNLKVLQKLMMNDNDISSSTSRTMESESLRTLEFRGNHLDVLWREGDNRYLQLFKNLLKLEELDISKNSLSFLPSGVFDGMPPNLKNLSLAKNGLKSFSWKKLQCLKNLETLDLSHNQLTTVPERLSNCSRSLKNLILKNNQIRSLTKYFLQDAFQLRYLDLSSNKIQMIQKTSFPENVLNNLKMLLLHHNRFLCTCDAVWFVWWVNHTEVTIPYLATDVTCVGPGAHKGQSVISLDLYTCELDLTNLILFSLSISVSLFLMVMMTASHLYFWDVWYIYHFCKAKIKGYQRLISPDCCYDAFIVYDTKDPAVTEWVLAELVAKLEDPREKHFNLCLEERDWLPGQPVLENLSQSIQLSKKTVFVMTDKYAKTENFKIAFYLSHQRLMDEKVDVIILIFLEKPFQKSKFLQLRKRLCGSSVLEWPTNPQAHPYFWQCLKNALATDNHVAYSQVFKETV

EC50 [1]	EC50 [2]	Compound
0.29 µM	1.53 µM	4-amino-2-butyl-1-(2-hydroxypropyl)-7-benzenesulphonyl-1H-imidazo[4,5-c]quinoline [Compound 548]
	3.6 µM	CCCCc1nc2c(N)nc3cc(C(=O)OC)ccc3c2n1CCC(=O)OC [Compound 567]
	6.7 µM	CCCCc1nc2c(N)nc3cc(C(=O)OC)ccc3c2n1CCSCC [Compound 565]
	3.8 µM	CCCCc1nc2c(N)nc3cc(C(=O)OC)ccc3c2n1CCCSC [Compound 564]
	4.5 µM	CCCCc1nc2c(N)nc3cc(C(=O)OC)ccc3c2n1CCCC(=O)OC [Compound 568]
	2.9 µM	CCCCc1nc2c(N)nc3cc(C(=O)OC)ccc3c2n1CCSC [Compound 563]
	1.74 µM	CCCCc1nc2c(N)nc3cc(C(=O)OC)ccc3c2n1CCCCC(=O)OC [Compound 569]
	189 µM	CCCCc1nc2c(N)nc3cc(C(=O)OC)ccc3c2n1Cc1ccc(C(=O)O)cc1 [Compound 556]
0.24 µM	0.42 µM	CCCCc1nc2c(N)nc3cc(C(=O)OC)ccc3c2n1CCCNS(=O)(=O)c1ccccc1 [Compound 544]
2.2 µM	0.6 µM	CCCCc1nc2c(N)nc3cc(C(=O)OC)ccc3c2n1CCCCCN [Compound 574]
66 µM		CCCCc1nc2c(N)nc3cc(C(=O)OC)ccc3c2n1CCCN [Compound 572]
	2.9 µM	CCCCc1nc2c(N)nc3cc(C(=O)OC)ccc3c2n1CCCCCC(=O)OC [Compound 570]
3.85 µM		CCCCc1nc2c(N)nc3cc(C(=O)OC)ccc3c2n1CCCCN [Compound 573]
	3.3 µM	CCCCc1nc2c(N)nc3cc(C(=O)OC)ccc3c2n1CC(=O)OC [Compound 566]
